Like-named read-outs stand apart in the source and are kept apart here. e = 2'-O-(2-methoxyethyl) (MOE); d = 2'-deoxy (DNA)
Assays:
[1] = mouse, in vivo, sc, 50 mg/kg
[2] = mouse, in vivo, sc, 50 mg/kg; remark: listed apart in the source
[3] = mouse, in vivo, sc, 50 mg/kg; remark: listed apart in the source
[4] = rat, in vivo, sc, 50 mg/kg
[5] = rat, in vivo, sc, 50 mg/kg; remark: listed apart in the source
[6] = rat, in vivo, sc, 50 mg/kg; remark: listed apart in the source

ISIS 413482: 5-10-5 MOE gapmer GGACGGCATTGGTGCACAGT (sugars from the 5' end e5 d10 e5, backbone and methylation of C not given here)
ALT [1]: 54 IU/L
AST [1]: 77 IU/L
Bilirubin [1]: 0.24 mg/dL
Cholesterol [1]: 138 mg/dL
BUN [2]: 27 mg/dL
HCT [3]: 50%
Lymphocyte [3]: 5584 cells/μL
Neutrophil [3]: 1958 cells/μL
Platelets [3]: 818 10^3/μL
RBC [3]: 10 10^6/μL
WBC [3]: 8 10^3/μL
hemoglobin [3]: 15 g/dL
monocytes [3]: 275 cells/μL
ALT [4]: 59 IU/L
AST [4]: 157 IU/L
Albumin [4]: 4
Bilirubin [4]: 0.14 mg/dL
BUN [5]: 23 mg/dL
Creatinine [5]: 34 mg/dL
Total urine protein [5]: 157 mg/dL
Urine protein/creatinine ratio [5]: 4.8
HCT [6]: 40%
Lymphocyte [6]: 11430
Neutrophil [6]: 1125
Platelets [6]: 641
RBC [6]: 7.1 10^6/μL
WBC [6]: 13 10^3/μL
hemoglobin [6]: 13.2 g/dL

ISIS 416861: MOE gapmer, nucleobases 1275 to 1318 of SEQ ID NO: 1 (Table 8) (antisense GCGGACGGCATTGGTGCACA; MOE gapmer, wing and gap sizes not given here)
ALT [1]: 38 IU/L
AST [1]: 85 IU/L
Bilirubin [1]: 0.27 mg/dL
Cholesterol [1]: 133 mg/dL
BUN [2]: 23 mg/dL
HCT [3]: 48%
Lymphocyte [3]: 5119 cells/μL
Neutrophil [3]: 1122 cells/μL
Platelets [3]: 836 10^3/μL
RBC [3]: 9 10^6/μL
WBC [3]: 7 10^3/μL
hemoglobin [3]: 14 g/dL
monocytes [3]: 219 cells/μL
ALT [4]: 89 IU/L
AST [4]: 154 IU/L
Albumin [4]: 5
Bilirubin [4]: 0.15 mg/dL
BUN [5]: 22 mg/dL
Creatinine [5]: 39 mg/dL
Total urine protein [5]: 205 mg/dL
Urine protein/creatinine ratio [5]: 5.1
HCT [6]: 45%
Lymphocyte [6]: 12865
Neutrophil [6]: 1813
Platelets [6]: 1008
RBC [6]: 7.7 10^6/μL
WBC [6]: 15 10^3/μL
hemoglobin [6]: 14.6 g/dL

ISIS 416849: MOE gapmer, nucleobases 1275 to 1318 of SEQ ID NO: 1 (Table 8) (antisense GCACAGTTTCTGGCAGGCCT; MOE gapmer, wing and gap sizes not given here)
ALT [1]: 1056 IU/L
AST [1]: 582 IU/L
Bilirubin [1]: 0.22 mg/dL
Cholesterol [1]: 109 mg/dL
BUN [2]: 23 mg/dL
HCT [3]: 48%
Lymphocyte [3]: 6967 cells/μL
Neutrophil [3]: 1522 cells/μL
Platelets [3]: 744 10^3/μL
RBC [3]: 9 10^6/μL
WBC [3]: 9 10^3/μL
hemoglobin [3]: 14 g/dL
monocytes [3]: 253 cells/μL

ISIS 416865: MOE gapmer, nucleobases 1275 to 1318 of SEQ ID NO: 1 (Table 8) (antisense TGGCAGCGGACGGCATTGGT; MOE gapmer, wing and gap sizes not given here)
ALT [1]: 383 IU/L
AST [1]: 262 IU/L
Bilirubin [1]: 0.27 mg/dL
Cholesterol [1]: 95 mg/dL
BUN [2]: 20 mg/dL
HCT [3]: 50%
Lymphocyte [3]: 5148 cells/μL
Neutrophil [3]: 1227 cells/μL
Platelets [3]: 872 10^3/μL
RBC [3]: 9 10^6/μL
WBC [3]: 7 10^3/μL
hemoglobin [3]: 14 g/dL
monocytes [3]: 315 cells/μL

ISIS 416852: MOE gapmer, nucleobases 1275 to 1318 of SEQ ID NO: 1 (Table 8) (antisense TGGTGCACAGTTTCTGGCAG; MOE gapmer, wing and gap sizes not given here)
ALT [1]: 49 IU/L
AST [1]: 91 IU/L
Bilirubin [1]: 0.16 mg/dL
Cholesterol [1]: 125 mg/dL
BUN [2]: 21 mg/dL
HCT [3]: 49%
Lymphocyte [3]: 3646 cells/μL
Neutrophil [3]: 1241 cells/μL
Platelets [3]: 903 10^3/μL
RBC [3]: 9 10^6/μL
WBC [3]: 5 10^3/μL
hemoglobin [3]: 14 g/dL
monocytes [3]: 189 cells/μL
ALT [4]: 49 IU/L
AST [4]: 87 IU/L
Albumin [4]: 4
Bilirubin [4]: 0.15 mg/dL
BUN [5]: 25 mg/dL
Creatinine [5]: 60 mg/dL
Total urine protein [5]: 189 mg/dL
Urine protein/creatinine ratio [5]: 3.0
HCT [6]: 42%
Lymphocyte [6]: 11956
Neutrophil [6]: 836
Platelets [6]: 632
RBC [6]: 7.2 10^6/μL
WBC [6]: 13 10^3/μL
hemoglobin [6]: 13.4 g/dL

ISIS 416860: MOE gapmer, nucleobases 1275 to 1318 of SEQ ID NO: 1 (Table 8) (antisense CGGACGGCATTGGTGCACAG; MOE gapmer, wing and gap sizes not given here)
ALT [1]: 189 IU/L
AST [1]: 160 IU/L
Bilirubin [1]: 0.23 mg/dL
Cholesterol [1]: 152 mg/dL
BUN [2]: 25 mg/dL
HCT [3]: 51%
Lymphocyte [3]: 4889 cells/μL
Neutrophil [3]: 1291 cells/μL
Platelets [3]: 937 10^3/μL
RBC [3]: 10 10^6/μL
WBC [3]: 7 10^3/μL
hemoglobin [3]: 15 g/dL
monocytes [3]: 161 cells/μL
ALT [4]: 70 IU/L
AST [4]: 157 IU/L
Albumin [4]: 4
Bilirubin [4]: 0.15 mg/dL
BUN [5]: 23 mg/dL
Creatinine [5]: 58 mg/dL
Total urine protein [5]: 242 mg/dL
Urine protein/creatinine ratio [5]: 4.6
HCT [6]: 45%
Lymphocyte [6]: 13986
Neutrophil [6]: 1841
Platelets [6]: 669
RBC [6]: 7.8 10^6/μL
WBC [6]: 17 10^3/μL
hemoglobin [6]: 14.1 g/dL

ISIS 416867: MOE gapmer, nucleobases 1275 to 1318 of SEQ ID NO: 1 (Table 8) (antisense ACTGGCAGCGGACGGCATTG; MOE gapmer, wing and gap sizes not given here)
ALT [1]: 45 IU/L
AST [1]: 82 IU/L
Bilirubin [1]: 0.21 mg/dL
Cholesterol [1]: 144 mg/dL
BUN [2]: 20 mg/dL
HCT [3]: 47%
Lymphocyte [3]: 6078 cells/μL
Neutrophil [3]: 1404 cells/μL
Platelets [3]: 1006 10^3/μL
RBC [3]: 10 10^6/μL
WBC [3]: 8 10^3/μL
hemoglobin [3]: 14 g/dL
monocytes [3]: 188 cells/μL
ALT [4]: 47 IU/L
AST [4]: 126 IU/L
Albumin [4]: 4
Bilirubin [4]: 0.17 mg/dL
BUN [5]: 22 mg/dL
Creatinine [5]: 70 mg/dL
Total urine protein [5]: 217 mg/dL
Urine protein/creatinine ratio [5]: 3.1
HCT [6]: 45%
Lymphocyte [6]: 10405
Neutrophil [6]: 3044
Platelets [6]: 705
RBC [6]: 7.8 10^6/μL
WBC [6]: 14 10^3/μL
hemoglobin [6]: 14.0 g/dL

ISIS 416848: MOE gapmer, nucleobases 1275 to 1318 of SEQ ID NO: 1 (Table 8) (antisense CACAGTTTCTGGCAGGCCTC; MOE gapmer, wing and gap sizes not given here)
ALT [1]: 153 IU/L
AST [1]: 153 IU/L
Bilirubin [1]: 0.19 mg/dL
Cholesterol [1]: 151 mg/dL
BUN [2]: 23 mg/dL
HCT [3]: 47%
Lymphocyte [3]: 5268 cells/μL
Neutrophil [3]: 1264 cells/μL
Platelets [3]: 953 10^3/μL
RBC [3]: 9 10^6/μL
WBC [3]: 7 10^3/μL
hemoglobin [3]: 14 g/dL
monocytes [3]: 180 cells/μL
ALT [4]: 89 IU/L
AST [4]: 236 IU/L
Albumin [4]: 3
Bilirubin [4]: 0.14 mg/dL
BUN [5]: 26 mg/dL
Creatinine [5]: 64 mg/dL
Total urine protein [5]: 231 mg/dL
Urine protein/creatinine ratio [5]: 3.9
HCT [6]: 35%
Lymphocyte [6]: 14316
Neutrophil [6]: 1874
Platelets [6]: 384
RBC [6]: 6.0 10^6/μL
WBC [6]: 17 10^3/μL
hemoglobin [6]: 11.1 g/dL

ISIS 416855: MOE gapmer, nucleobases 1275 to 1318 of SEQ ID NO: 1 (Table 8) (antisense CATTGGTGCACAGTTTCTGG; MOE gapmer, wing and gap sizes not given here)
ALT [1]: 786 IU/L
AST [1]: 580 IU/L
Bilirubin [1]: 0.25 mg/dL
Cholesterol [1]: 162 mg/dL
BUN [2]: 23 mg/dL
HCT [3]: 50%
Lymphocyte [3]: 4236 cells/μL
Neutrophil [3]: 1443 cells/μL
Platelets [3]: 784 10^3/μL
RBC [3]: 9 10^6/μL
WBC [3]: 6 10^3/μL
hemoglobin [3]: 14 g/dL
monocytes [3]: 263 cells/μL

ISIS 416853: MOE gapmer, nucleobases 1275 to 1318 of SEQ ID NO: 1 (Table 8) (antisense TTGGTGCACAGTTTCTGGCA; MOE gapmer, wing and gap sizes not given here)
ALT [1]: 1023 IU/L
AST [1]: 1087 IU/L
Bilirubin [1]: 0.25 mg/dL
Cholesterol [1]: 164 mg/dL
BUN [2]: 22 mg/dL
HCT [3]: 56%
Lymphocyte [3]: 5184 cells/μL
Neutrophil [3]: 2040 cells/μL
Platelets [3]: 801 10^3/μL
RBC [3]: 11 10^6/μL
WBC [3]: 8 10^3/μL
hemoglobin [3]: 17 g/dL
monocytes [3]: 225 cells/μL

From patent publication US20230263822A1, “MODULATION OF FACTOR 11 EXPRESSION” (Ionis Pharmaceuticals, Inc., priority 2008, published 2023)
